Data on 34 molecules can be found in patent US10703733B2, “MCL-1 inhibitors” (Gilead Sciences, Inc., priority 2018, dated 2020).

By IC50 is commonly meant the concentration at which inhibition is half-maximal. In general, EC50 refers to the concentration at which the effect is half-maximal.

In assay [1] the target is MCL-1/Bim interaction (recombinant human MCL-1 protein, residues 171-327; biotinylated human Bim peptide, residues 51-76) (Homo sapiens (Human), UniProt Q07820). Briefly: MCL-1/Bim Binding AlphaLISA Assay. Particulars: 0.0625 nM 6xHis-Mcl-1 (171-327), 0.0625 nM biotinylated-Bim peptide. The procedure, abridged: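 Protein 0.0625 nM + cpd, 1 h; add biotin-Bim 0.0625 nM, 2 h; acceptor beads 1 h; donor beads 1 h; AlphaScreen read. Buffer 20 mM Hepes pH 7.5, 150 mM NaCl, 1 mM DTT.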
MCL-1/Bim interaction (recombinant human MCL-1 protein, residues 171-327; biotinylated human Bim peptide, residues 51-76), sequence (Q07820 171-327): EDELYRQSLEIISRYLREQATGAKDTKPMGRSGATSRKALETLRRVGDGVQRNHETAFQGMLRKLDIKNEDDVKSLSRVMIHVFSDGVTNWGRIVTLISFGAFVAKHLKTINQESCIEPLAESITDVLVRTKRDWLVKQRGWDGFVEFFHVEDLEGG

Another assay has as its system SKBR3 cells. Put plainly: SKBR3 Cell Viability Assay (CellTiter Glo). In kind it is cell-based. Conditions: Homo sapiens, SK-BR-3, 72 h, CellTiter Glo luminescence, read-out: MCL-1 CV SKBR3 EC50. Put shortly:
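Viability read as CellTiter Glo luminescence after 72 h of compound exposure at 37° C./5% CO2, using 6,000 SKBR3 cells per well in McCoy 5A with 10% FBS. Percent inhibition scaled between DMSO wells and 10 μM puromycin wells.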
(In general: In ATP-based viability assays light output follows the ATP content of the culture.)

Molecules are shown by their SMILES.

For the molecule `CO[C@H]1/C=C/C[C@H](C)C[S@@](=O)(NC(=O)c2cnn(C(C)C)c2)=NC(=O)c2ccc3c(c2)N(C[C@@H]2CC[C@H]21)C[C@@]1(CCCc2cc(Cl)ccc21)CO3` [Example 123], the 50% inhibitory concentration (IC50) in assay [1] was 0.071 nM. Further, the EC50 with SKBR3 cells is 114 nM.
For `CO[C@H]1/C=C/C[C@H](C)C[S@@](=O)(NC(=O)COC2(C)CCOCC2)=NC(=O)c2ccc3c(c2)N(C[C@@H]2CC[C@H]21)C[C@@]1(CCCc2cc(Cl)ccc21)CO3` [Example 124], in assay [1], the IC50 turned out to be 0.066 nM. Besides, the half-maximal effective concentration (EC50) in the assay on SKBR3 cells was 95.8 nM.
As for `CO[C@H]1/C=C/C[C@H](C)C[S@@](=O)(NC(=O)C2CC3(CCOC3)C2)=NC(=O)c2ccc3c(c2)N(C[C@@H]2CC[C@H]21)C[C@@]1(CCCc2cc(Cl)ccc21)CO3` (some centres unmarked) [Example 125], the IC50 in assay [1] worked out at 0.074 nM. The EC50 in the assay with SKBR3 cells worked out at 88.7 nM.
For `CO[C@H]1/C=C/C[C@H](C)C[S@@](=O)(NC(=O)c2cn(C)nc2Cl)=NC(=O)c2ccc3c(c2)N(C[C@@H]2CC[C@H]21)C[C@@]1(CCCc2cc(Cl)ccc21)CO3` [Example 126], in assay [1], the half-inhibitory concentration (IC50) was 0.099 nM. Moreover, the 50% effective concentration (EC50) with SKBR3 cells was determined as 123 nM.
In the same order, the values of `CO[C@H]1/C=C/C[C@H](C)C[S@@](=O)(NC(=O)[C@H]2C[C@@H](OC)C2)=NC(=O)c2ccc3c(c2)N(C[C@@H]2CC[C@H]21)C[C@@]1(CCCc2cc(Cl)ccc21)CO3` [Example 127] are 0.085 nM and 158 nM.
On to `CO[C@H]1/C=C/C[C@H](C)C[S@@](=O)(NC(=O)[C@H]2C[C@H](OC)C2)=NC(=O)c2ccc3c(c2)N(C[C@@H]2CC[C@H]21)C[C@@]1(CCCc2cc(Cl)ccc21)CO3` [Example 128], for which, in assay [1], the IC50 amounted to 0.068 nM. The EC50 in the assay on SKBR3 cells was 96.4 nM.
The matching figures for `CO[C@H]1/C=C/C[C@H](C)C[S@@](=O)(NC(=O)N[C@@H]2C[C@H]2c2cnn(C)c2)=NC(=O)c2ccc3c(c2)N(C[C@@H]2CC[C@H]21)C[C@@]1(CCCc2cc(Cl)ccc21)CO3` [Example 129]: 0.077 nM and 64.7 nM.
For `CCn1ccc(C(=O)N[S@@]2(=O)=NC(=O)c3ccc4c(c3)N(C[C@@H]3CC[C@H]3[C@@H](OC)/C=C/C[C@H](C)C2)C[C@@]2(CCCc3cc(Cl)ccc32)CO4)c1` [Example 130], in assay [1], the IC50 was 0.18 nM. Besides, the EC50 in the assay with SKBR3 cells is 152 nM.
The matching figures for `COCC1(NC(=O)N[S@@]2(=O)=NC(=O)c3ccc4c(c3)N(C[C@@H]3CC[C@H]3[C@@H](OC)/C=C/C[C@H](C)C2)C[C@@]2(CCCc3cc(Cl)ccc32)CO4)CC1` [Example 131]: 0.046 nM and 162 nM.
Consider `COCCNC(=O)N[S@@]1(=O)=NC(=O)c2ccc3c(c2)N(C[C@@H]2CC[C@H]2[C@@H](OC)/C=C/C[C@H](C)C1)C[C@@]1(CCCc2cc(Cl)ccc21)CO3` [Example 132], for which the concentration for half-maximal inhibition (IC50) in assay [1] is 0.038 nM. Further, in the assay with SKBR3 cells, the EC50 was found to be 72 nM.
`CO[C@H]1/C=C/C[C@H](C)[C@@H](C)[S@@](=O)(NC(=O)CO[C@H]2CCOC[C@H]2F)=NC(=O)c2ccc3c(c2)N(C[C@@H]2CC[C@H]21)C[C@@]1(CCCc2cc(Cl)ccc21)CO3` [Example 133]: in assay [1], the IC50 amounted to 0.051 nM. The EC50 in the assay on SKBR3 cells was 130 nM.
In the same order, the values of `CCn1cc(C(=O)N[S@@]2(=O)=NC(=O)c3ccc4c(c3)N(C[C@@H]3CC[C@H]3[C@@H](OC)/C=C/C[C@H](C)C2)C[C@@]2(CCCc3cc(Cl)ccc32)CO4)cn1` [Example 134] are 0.072 nM and 59.6 nM.
In the same order, the values of `CO[C@H]1/C=C/C[C@H](C)C[S@@](=O)(NC(=O)c2cc3n(c2)CC=C3)=NC(=O)c2ccc3c(c2)N(C[C@@H]2CC[C@H]21)C[C@@]1(CCCc2cc(Cl)ccc21)CO3` [Example 135] are 0.213 nM and 132 nM.
In the same order, the values of `CO[C@H]1/C=C/C[C@H](C)C[S@@](=O)(NC(=O)c2cc3n(c2)CCC3)=NC(=O)c2ccc3c(c2)N(C[C@@H]2CC[C@H]21)C[C@@]1(CCCc2cc(Cl)ccc21)CO3` [Example 136] are 0.183 nM and 76.4 nM.
For `CO[C@H]1/C=C/C[C@H](C)[C@@H](C)[S@@](=O)(NC(=O)c2cc3n(c2)CCOC3)=NC(=O)c2ccc3c(c2)N(C[C@@H]2CC[C@H]21)C[C@@]1(CCCc2cc(Cl)ccc21)CO3` [Example 137], in assay [1], the IC50 amounted to 0.491 nM. Besides, the EC50 with SKBR3 cells was 104 nM.
In the same order, the values of `CO[C@H]1/C=C/C[C@H](C)[C@@H](C)[S@@](=O)(NC(=O)c2cnn(C)c2)=NC(=O)c2ccc3c(c2)N(C[C@@H]2CC[C@H]21)C[C@@]1(CCCc2cc(Cl)ccc21)CO3` [Example 138] are 0.112 nM and 60.5 nM.
For `CO[C@H]1/C=C/C[C@H](C)C[S@@](=O)(NC(=O)c2cc3n(c2)CCOC3)=NC(=O)c2ccc3c(c2)N(C[C@@H]2CC[C@H]21)C[C@@]1(CCCc2cc(Cl)ccc21)CO3` [Example 139], the IC50 in assay [1] is 0.116 nM. The 50% effective concentration (EC50) with SKBR3 cells was determined as 94.1 nM.
In the same order, the values of `CO[C@H]1/C=C/C[C@H](C)C[S@@](=O)(NC(=O)C2CC(C)(O)C2)=NC(=O)c2ccc3c(c2)N(C[C@@H]2CC[C@H]21)C[C@@]1(CCCc2cc(Cl)ccc21)CO3` (some centres unmarked) [Example 140] are 0.043 nM and 38.6 nM.
The matching figures for `CO[C@H]1/C=C/C[C@H](C)C[S@@](=O)(NC(=O)CCc2cnn(C)c2)=NC(=O)c2ccc3c(c2)N(C[C@@H]2CC[C@H]21)C[C@@]1(CCCc2cc(Cl)ccc21)CO3` [Example 142]: 0.097 nM and 416 nM.
In the same order, the values of `CO[C@H]1/C=C/C[C@H](C)C[S@@](=O)(NC(=O)NC2CC2)=NC(=O)c2ccc3c(c2)N(C[C@@H]2CC[C@H]21)C[C@@]1(CCCc2cc(Cl)ccc21)CO3` [Example 144] are 0.05 nM and 50.8 nM.
In the case of `CO[C@H]1/C=C/C[C@H](C)C[S@@](=O)(NC(=O)c2cc3n(c2)C(=O)CCC3)=NC(=O)c2ccc3c(c2)N(C[C@@H]2CC[C@H]21)C[C@@]1(CCCc2cc(Cl)ccc21)CO3` [Example 145], the IC50 in assay [1] came out at 0.037 nM. In addition, the EC50 with SKBR3 cells was determined as 147 nM.
On to `CO[C@H]1/C=C/C[C@H](C)C[S@@](=O)(NC(=O)c2csc(C)n2)=NC(=O)c2ccc3c(c2)N(C[C@@H]2CC[C@H]21)C[C@@]1(CCCc2cc(Cl)ccc21)CO3` [Example 146], for which, in assay [1], the half-maximal inhibitory concentration (IC50) was 0.062 nM. Also, the EC50 with SKBR3 cells turned out to be 185 nM.
The matching figures for `CO[C@H]1/C=C/C[C@H](C)C[S@@](=O)(NC(=O)c2ccn(C)c2)=NC(=O)c2ccc3c(c2)N(C[C@@H]2CC[C@H]21)C[C@@]1(CCCc2cc(Cl)ccc21)CO3` [Example 147]: 0.051 nM and 111 nM.
In the same order, the values of `CO[C@H]1/C=C/C[C@H](C)C[S@@](=O)(NC(=O)c2cnn(C)c2)=NC(=O)c2ccc3c(c2)N(C[C@@H]2CC[C@H]21)C[C@@]1(CCCc2cc(Cl)ccc21)CO3` [Example 148] are 0.043 nM and 37.2 nM.
On to `CO[C@H]1/C=C/C[C@H](C)C[S@@](=O)(NC(=O)N[C@H]2C[C@@H](OC)C2)=NC(=O)c2ccc3c(c2)N(C[C@@H]2CC[C@H]21)C[C@@]1(CCCc2cc(Cl)ccc21)CO3` [Example 149], for which, in assay [1], the IC50 is 0.109 nM. For the same molecule, in the assay on SKBR3 cells, the concentration giving a half-maximal response (EC50) was 95.3 nM.
Turning to `CO[C@H]1/C=C/C[C@H](C)C[S@@](=O)(NC(=O)N[C@H]2C[C@H](OC)C2)=NC(=O)c2ccc3c(c2)N(C[C@@H]2CC[C@H]21)C[C@@]1(CCCc2cc(Cl)ccc21)CO3` [Example 150], in assay [1], the concentration for half-maximal inhibition (IC50) was 0.071 nM. Also, the EC50 in the assay on SKBR3 cells came to 39.3 nM.
The matching figures for `CCn1cc(C(=O)N[S@@]2(=O)=NC(=O)c3ccc4c(c3)N(C[C@@H]3CC[C@H]3[C@@H](OC)/C=C/C[C@H](C)[C@H]2C)C[C@@]2(CCCc3cc(Cl)ccc32)CO4)cn1` [Example 153]: 0.086 nM and 69.5 nM.
The matching figures for `CO[C@H]1/C=C/C[C@H](C)C[S@@](=O)(NC(=O)N[C@@H]2CCOC2)=NC(=O)c2ccc3c(c2)N(C[C@@H]2CC[C@H]21)C[C@@]1(CCCc2cc(Cl)ccc21)CO3` [Example 155]: 0.06 nM and 43 nM.
In the same order, the values of `CO[C@H]1/C=C/C[C@H](C)C[S@@](=O)(NC(=O)c2ccn(C3CC3)c2)=NC(=O)c2ccc3c(c2)N(C[C@@H]2CC[C@H]21)C[C@@]1(CCCc2cc(Cl)ccc21)CO3` [Example 156] are 0.111 nM and 145 nM.
As for `CO[C@H]1/C=C/C[C@H](C)C[S@@](=O)(NC(=O)c2ccc3c(c2)COCC3)=NC(=O)c2ccc3c(c2)N(C[C@@H]2CC[C@H]21)C[C@@]1(CCCc2cc(Cl)ccc21)CC3` [Example 157], in assay [1], the IC50 is 0.234 nM. Besides, the EC50 in the assay on SKBR3 cells is 64.8 nM.
The matching figures for `CO[C@H]1/C=C/C[C@H](C)C[S@@](=O)(NC(=O)c2cc3c([nH]2)CCOC3)=NC(=O)c2ccc3c(c2)N(C[C@@H]2CC[C@H]21)C[C@@]1(CCCc2cc(Cl)ccc21)CO3` [Example 158]: 0.135 nM and 47.4 nM.
In the same order, the values of `CO[C@H]1/C=C/C[C@H](C)C[S@@](=O)(NC(=O)N[C@H]2C[C@H]2C)=NC(=O)c2ccc3c(c2)N(C[C@@H]2CC[C@H]21)C[C@@]1(CCCc2cc(Cl)ccc21)CO3` [Example 159] are 0.087 nM and 144 nM.
The matching figures for `CO[C@H]1/C=C/C[C@H](C)C[S@@](=O)(NC(=O)N[C@H]2C[C@@H]2OC)=NC(=O)c2ccc3c(c2)N(C[C@@H]2CC[C@H]21)C[C@@]1(CCCc2cc(Cl)ccc21)CO3` [Example 160]: 0.031 nM and 35 nM.
Consider `CO[C@H]1/C=C/C[C@H](C)C[S@@](=O)(NC(=O)N[C@H]2CC2(F)F)=NC(=O)c2ccc3c(c2)N(C[C@@H]2CC[C@H]21)C[C@@]1(CCCc2cc(Cl)ccc21)CO3` [Example 161], for which the IC50 in assay [1] turned out to be 0.025 nM. Further, the EC50 in the assay with SKBR3 cells amounted to 168 nM.
